From the supplement of paper PMC11451515

Legend:
Details in all cases: 48 h
SEM cells [1] = test: AUC of viability dose-response curve (% viability x log10 dose units); higher = less sensitive
In short: (§1)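 Area under the curve was integrated by trapezoidal rule from a log-logistic fit of normalised viability, with curves exceeding full viability scaled and quality-control failures removed. The fit had four parameters over log10 doses. Viability came from CellTiter-Glo One luminescence, normalised per plate to DMSO and cell-free wells, after leukemia cells adapted to each medium (500 or 1000 cells/well, 1536-well plates) were exposed to library compounds in DMSO for 48 h at 37°C. The 11 threefold doses ran from 47 μM to 0.79 nM.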

NOMO1 [2] = test: as above
In short: as §1

P12-Ichikawa [3] = test: as above
In short: as §1

SEM cells [4] = test: cell viability relative to DMSO control; higher = less cytotoxic
In short: (§2)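 Before seeding, each leukemia line was adapted for at least four passages in each medium. NOMO1 or SEM cells (500 cells/well) and P12-Ichikawa cells (1000 cells/well) went into 1536-well plates at 5 μl, then received library compounds in DMSO by pin dosing across 11 threefold concentrations, 47 μM to 0.79 nM. Readout was CellTiter-Glo One luminescence after 48 h at 37°C, and viability is given as a per-plate percentage of DMSO wells, with cell-free wells as background.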

NOMO1 [5] = test: as above
In short: as §2

P12-Ichikawa [6] = test: as above
In short: as §2

COc1cc2c(Oc3ccc4[nH]c(C)cc4c3F)ncnc2cc1OCCCN1CCCC1
AUC of viability dose-response curve
Details | NOMO1 [2] | P12-Ichikawa [3] | SEM cells [1]
HPLM + 10% dialyzed FBS | 453 | 448 | 382
RPMI 5 mM glucose + 10% FBS | 452 | 449 | 380
RPMI 5 mM glucose + 10% dialyzed FBS | 463 | 448 | 356

O=C(O)CCCc1c[nH]c2ccccc12
AUC of viability dose-response curve
Details | HPLM + 10% dialyzed FBS | RPMI 5 mM glucose + 10% FBS | RPMI 5 mM glucose + 10% dialyzed FBS
P12-Ichikawa [3] | 468 | 431 | 452
SEM cells [1] | 468 | 441 | 431

SEM cells [4], HPLM + 10% dialyzed FBS
Details | cell viability [%]
0.000781 µM | 111
0.00234 µM | 122
0.00702 µM | 130
0.0211 µM | 144
0.0632 µM | 105
0.19 µM | 113
0.569 µM | 102
1.71 µM | 124
5.12 µM | 138
15.4 µM | 131
46.1 µM | 97.9

C[C@@H](O)[C@@H]1NC(=O)[C@H](CCCCN)NC(=O)[C@@H](Cc2c[nH]c3ccccc23)NC(=O)[C@H](Cc2ccccc2)NC(=O)[C@@H](NC(=O)[C@H](N)Cc2ccccc2)CSSC[C@@H](C(=O)N[C@H](CO)[C@@H](C)O)NC1=O
AUC of viability dose-response curve
Details | HPLM + 10% dialyzed FBS | RPMI 5 mM glucose + 10% FBS | RPMI 5 mM glucose + 10% dialyzed FBS
P12-Ichikawa [3] | 438 | 395 | 391
SEM cells [1] | 422 | 404 | 380

cell viability [%]
Details | NOMO1 [5] | P12-Ichikawa [6] | SEM cells [4]
HPLM + 10% dialyzed FBS, 0.000781 µM | 75.7 | 84.1 | 71.3
HPLM + 10% dialyzed FBS, 0.00234 µM | 75 | 94.4 | 83.6
HPLM + 10% dialyzed FBS, 0.00702 µM | 90 | 88.9 | 87.8
HPLM + 10% dialyzed FBS, 0.0211 µM | 88.1 | 90.5 | 91
HPLM + 10% dialyzed FBS, 0.0632 µM | 103 | 91.7 | 99
HPLM + 10% dialyzed FBS, 0.19 µM | 83.6 | 94.1 | 78.3
HPLM + 10% dialyzed FBS, 0.569 µM | 91.8 | 91.3 | 83.4
HPLM + 10% dialyzed FBS, 1.71 µM | 82.5 | 95.8 | 91.2
HPLM + 10% dialyzed FBS, 5.12 µM | 74.2 | 89.4 | 97.5
HPLM + 10% dialyzed FBS, 15.4 µM | 81.8 | 92 | 97.7
HPLM + 10% dialyzed FBS, 46.1 µM | 75.9 | 95 | 84.6
RPMI 5 mM glucose + 10% FBS, 0.000781 µM | 74.6 | 76.4 | 67.4
RPMI 5 mM glucose + 10% FBS, 0.00234 µM | 79.4 | 85.1 | 94.4
RPMI 5 mM glucose + 10% FBS, 0.00702 µM | 83.1 | 83 | 83.2
RPMI 5 mM glucose + 10% FBS, 0.0211 µM | 79.3 | 87.2 | 105
RPMI 5 mM glucose + 10% FBS, 0.0632 µM | 83.3 | 81.7 | 90.6
RPMI 5 mM glucose + 10% FBS, 0.19 µM | 81.6 | 81.3 | 55.5
RPMI 5 mM glucose + 10% FBS, 0.569 µM | 84.5 | 83 | 82.6
RPMI 5 mM glucose + 10% FBS, 1.71 µM | 76.8 | 83.8 | 91.6
RPMI 5 mM glucose + 10% FBS, 5.12 µM | 80.7 | 86.4 | 101
RPMI 5 mM glucose + 10% FBS, 15.4 µM | 81.1 | 78.8 | 90.4
RPMI 5 mM glucose + 10% FBS, 46.1 µM | 83.5 | 81 | 70.4
RPMI 5 mM glucose + 10% dialyzed FBS, 0.000781 µM | 86.9 | 83 | 64.8
RPMI 5 mM glucose + 10% dialyzed FBS, 0.00234 µM | 89 | 80.8 | 81
RPMI 5 mM glucose + 10% dialyzed FBS, 0.00702 µM | 87 | 85.7 | 84.5
RPMI 5 mM glucose + 10% dialyzed FBS, 0.0211 µM | 92.2 | 82.6 | 86.1
RPMI 5 mM glucose + 10% dialyzed FBS, 0.0632 µM | 93.6 | 84.9 | 78.7
RPMI 5 mM glucose + 10% dialyzed FBS, 0.19 µM | 85.3 | 79.8 | 75.1
RPMI 5 mM glucose + 10% dialyzed FBS, 0.569 µM | 101 | 80.1 | 81.7
RPMI 5 mM glucose + 10% dialyzed FBS, 1.71 µM | 92.5 | 84.7 | 74.7
RPMI 5 mM glucose + 10% dialyzed FBS, 5.12 µM | 91.2 | 79.8 | 97.1
RPMI 5 mM glucose + 10% dialyzed FBS, 15.4 µM | 103 | 79.9 | 85.6
RPMI 5 mM glucose + 10% dialyzed FBS, 46.1 µM | 112 | 79.7 | 67.3
